Assay results: ChEMBL document CHEMBL3046436, “Effects of 1,3-dichloropropene as a methyl bromide alternative for management of nematode, soil-borne disease, and weed in ginger (Zingiber officinale) crops in China” (2012)
Calls of active or inactive are those of the source. No cut-off for these calls is given here.

Tests used:
Zingiber officinale [1] = experiment: Increase in marketable fruit yield in Zingiber officinale (ginger) plants at 90 L/ha applied through fumigation protocol (reference value: 48.2 ton/ha); type: functional
Zingiber officinale [2] = experiment: Increase in marketable fruit yield in Zingiber officinale (ginger) plants at 120 L/ha applied through fumigation protocol (reference value: 48.2 ton/ha); type: functional
Zingiber officinale [3] = experiment: Increase in marketable fruit yield in Zingiber officinale (ginger) plants at 180 L/ha applied through fumigation protocol (reference value: 48.2 ton/ha); type: functional
Zingiber officinale [4] = experiment: Increase in medium fruit yield in Zingiber officinale (ginger) plants at 90 L/ha applied through fumigation protocol (reference value: 24.6 ton/ha); type: functional
Meloidogyne incognita [5] = experiment: Nematicidal activity against Meloidogyne incognita (root-knot nematode) in ginger crop fields assessed as root galling index at 90 L/ha measured after 60 days post compound application (reference value: 5.49 root galling index); type: functional
Meloidogyne incognita [6] = experiment: Nematicidal activity against Meloidogyne incognita (root-knot nematode) in ginger crop fields assessed as root galling index at 120 L/ha measured after 60 days post compound application (reference value: 5.49 root galling index); type: functional
Meloidogyne incognita [7] = experiment: Nematicidal activity against Meloidogyne incognita (root-knot nematode) in ginger crop fields assessed as root galling index at 180 L/ha measured after 60 days post compound application (reference value: 5.49 root galling index); type: functional
Meloidogyne incognita [8] = experiment: Nematicidal activity against Meloidogyne incognita (root-knot nematode) in ginger crop fields assessed as number of nematodes per 100 cm3 soil at 90 L/ha measured after 60 days post compound application (reference value: 88.2 nematodes in 100 cm3 soil); type: functional
Meloidogyne incognita [9] = experiment: Nematicidal activity against Meloidogyne incognita (root-knot nematode) in ginger crop fields assessed as number of nematodes per 100 cm3 soil at 120 L/ha measured after 60 days post compound application (reference value: 88.2 nematodes in 100 cm3 soil); type: functional
Meloidogyne incognita [10] = experiment: Nematicidal activity against Meloidogyne incognita (root-knot nematode) in ginger crop fields assessed as number of nematodes per 100 cm3 soil at 180 L/ha measured after 60 days post compound application (reference value: 88.2 nematodes in 100 cm3 soil); type: functional
Meloidogyne incognita [11] = experiment: Nematicidal activity against Meloidogyne incognita (root-knot nematode) in ginger crop fields assessed as number of nematodes per 100 cm3 soil at 90 L/ha measured after 40 days post compound application (reference value: 75.3 nematodes in 100 cm3 soil); type: functional
Meloidogyne incognita [12] = experiment: Nematicidal activity against Meloidogyne incognita (root-knot nematode) in ginger crop fields assessed as number of nematodes per 100 cm3 soil at 120 L/ha measured after 40 days post compound application (reference value: 75.3 nematodes in 100 cm3 soil); type: functional
Zingiber officinale [13] = experiment: Increase in stem diameter of Zingiber officinale (ginger) plants at 120 L/ha applied through fumigation protocol (reference value: 11.3 mm); type: functional
Zingiber officinale [14] = experiment: Increase in stem diameter of Zingiber officinale (ginger) plants at 180 L/ha applied through fumigation protocol (reference value: 11.3 mm); type: functional
Ralstonia solanacearum [15] = experiment: Antimicrobial activity against Ralstonia solanacearum in ginger plants fields assessed as reduction in ginger blast-induced plant mortality at 120 to 180 L/ha applied through fumigation protocol; type: functional, organism-based
Meloidogyne incognita [16] = experiment: Nematicidal activity against Meloidogyne incognita (root-knot nematode) in ginger crop fields assessed as number of nematodes per 100 cm3 soil at 180 L/ha measured after 40 days post compound application (reference value: 75.3 nematodes in 100 cm3 soil); type: functional
Meloidogyne incognita [17] = experiment: Nematicidal activity against Meloidogyne incognita (root-knot nematode) in ginger crop fields assessed as number of nematodes per 100 cm3 soil at 90 L/ha measured after 20 days post compound application (reference value: 56.7 nematodes in 100 cm3 soil); type: functional
Meloidogyne incognita [18] = experiment: Nematicidal activity against Meloidogyne incognita (root-knot nematode) in ginger crop fields assessed as number of nematodes per 100 cm3 soil at 120 L/ha measured after 20 days post compound application (reference value: 56.7 nematodes in 100 cm3 soil); type: functional
Meloidogyne incognita [19] = experiment: Nematicidal activity against Meloidogyne incognita (root-knot nematode) in ginger crop fields assessed as number of nematodes per 100 cm3 soil at 180 L/ha measured after 20 days post compound application (reference value: 56.7 nematodes in 100 cm3 soil); type: functional
Zingiber officinale [20] = experiment: Increase in shoots number of Zingiber officinale (ginger) plants at 90 to 180 L/ha applied through fumigation protocol; type: functional, organism-based
Zingiber officinale [21] = experiment: Increase in leaves number of Zingiber officinale (ginger) plants at 90 to 180 L/ha applied through fumigation protocol; type: functional, organism-based
Zingiber officinale [22] = experiment: Increase in stem diameter of Zingiber officinale (ginger) plants at 90 L/ha applied through fumigation protocol (reference value: 11.3 mm); type: functional
Zingiber officinale [23] = experiment: Increase in medium fruit yield in Zingiber officinale (ginger) plants at 120 L/ha applied through fumigation protocol (reference value: 24.6 ton/ha); type: functional
Zingiber officinale [24] = experiment: Increase in medium fruit yield in Zingiber officinale (ginger) plants at 180 L/ha applied through fumigation protocol (reference value: 24.6 ton/ha); type: functional
Zingiber officinale [25] = experiment: Increase in large fruit yield in Zingiber officinale (ginger) plants at 90 L/ha applied through fumigation protocol (reference value: 20.1 ton/ha); type: functional
Zingiber officinale [26] = experiment: Increase in large fruit yield in Zingiber officinale (ginger) plants at 120 L/ha applied through fumigation protocol (reference value: 20.1 ton/ha); type: functional
Zingiber officinale [27] = experiment: Increase in large fruit yield in Zingiber officinale (ginger) plants at 180 L/ha applied through fumigation protocol (reference value: 20.1 ton/ha); type: functional
Zingiber officinale [28] = experiment: Increase in extra-large fruit yield in Zingiber officinale (ginger) plants at 90 L/ha applied through fumigation protocol (reference value: 3.5 ton/ha); type: functional
Zingiber officinale [29] = experiment: Increase in extra-large fruit yield in Zingiber officinale (ginger) plants at 180 L/ha applied through fumigation protocol (reference value: 3.5 ton/ha); type: functional
Capsella bursa-pastoris [30] = experiment: Herbicidal activity against Capsella bursa-pastoris assessed as reduction in weed populations at 90 to 180 L/ha; type: functional, organism-based
Digitaria sanguinalis [31] = experiment: Herbicidal activity against Digitaria sanguinalis (hairy crabgrass) assessed as reduction in weed populations at 90 to 180 L/ha; type: functional, organism-based
Stellaria media [32] = experiment: Herbicidal activity against Stellaria media assessed as reduction in weed populations at 90 to 180 L/ha; type: functional, organism-based
Zingiber officinale [33] = experiment: Increase in plant height of Zingiber officinale (ginger) plants at 90 L/ha applied through fumigation protocol (reference value: 79.6 cm); type: functional
Zingiber officinale [34] = experiment: Increase in plant height of Zingiber officinale (ginger) plants at 180 L/ha applied through fumigation protocol (reference value: 79.6 cm); type: functional
Zingiber officinale [35] = experiment: Increase in plant height of Zingiber officinale (ginger) plants at 120 L/ha applied through fumigation protocol (reference value: 79.6 cm); type: functional
Zingiber officinale [36] = experiment: Increase in marketable fruit yield in Zingiber officinale (ginger) plants at 400 kg/ha applied through fumigation protocol (reference value: 48.2 ton/ha); type: functional
Meloidogyne incognita [37] = experiment: Nematicidal activity against Meloidogyne incognita (root-knot nematode) in ginger crop fields assessed as root galling index at 400 kg/ha measured after 60 days post compound application (reference value: 5.49 root galling index); type: functional
Meloidogyne incognita [38] = experiment: Nematicidal activity against Meloidogyne incognita (root-knot nematode) in ginger crop fields assessed as number of nematodes per 100 cm3 soil at 400 kg/ha measured after 60 days post compound application (reference value: 88.2 nematodes in 100 cm3 soil); type: functional
Digitaria sanguinalis [39] = experiment: Herbicidal activity against Digitaria sanguinalis (hairy crabgrass) assessed as reduction in weed populations at 400 kg/ha; type: functional, organism-based
Stellaria media [40] = experiment: Herbicidal activity against Stellaria media assessed as reduction in weed populations at 400 kg/ha; type: functional, organism-based
Ralstonia solanacearum [41] = experiment: Antimicrobial activity against Ralstonia solanacearum in ginger plants fields assessed as reduction in ginger blast-induced plant mortality at 400 kg/ha applied through fumigation protocol; type: functional, organism-based
Meloidogyne incognita [42] = experiment: Nematicidal activity against Meloidogyne incognita (root-knot nematode) in ginger crop fields assessed as number of nematodes per 100 cm3 soil at 400 kg/ha measured after 40 days post compound application (reference value: 75.3 nematodes in 100 cm3 soil); type: functional
Meloidogyne incognita [43] = experiment: Nematicidal activity against Meloidogyne incognita (root-knot nematode) in ginger crop fields assessed as number of nematodes per 100 cm3 soil at 400 kg/ha measured after 20 days post compound application (reference value: 56.7 nematodes in 100 cm3 soil); type: functional
Zingiber officinale [44] = experiment: Increase in medium fruit yield in Zingiber officinale (ginger) plants at 400 kg/ha applied through fumigation protocol (reference value: 24.6 ton/ha); type: functional
Zingiber officinale [45] = experiment: Increase in large fruit yield in Zingiber officinale (ginger) plants at 400 kg/ha applied through fumigation protocol (reference value: 20.1 ton/ha); type: functional
Zingiber officinale [46] = experiment: Increase in extra-large fruit yield in Zingiber officinale (ginger) plants at 400 kg/ha applied through fumigation protocol (reference value: 3.5 ton/ha); type: functional
Capsella bursa-pastoris [47] = experiment: Herbicidal activity against Capsella bursa-pastoris assessed as reduction in weed populations at 400 kg/ha; type: functional, organism-based
Zingiber officinale [48] = experiment: Increase in plant height of Zingiber officinale (ginger) plants at 400 kg/ha applied through fumigation protocol (reference value: 79.6 cm); type: functional
Zingiber officinale [49] = experiment: Increase in stem diameter of Zingiber officinale (ginger) plants at 400 kg/ha applied through fumigation protocol (reference value: 11.3 mm); type: functional

Cl/C=C/CCl [1,3-DICHLOROPROPENE]
Crop_yield (Zingiber officinale [1]): 64.7 tons/ha | Crop_yield (Zingiber officinale [2]): 71.1 tons/ha | Crop_yield (Zingiber officinale [3]): 75.8 tons/ha | Crop_yield (Zingiber officinale [4]): 32.4 tons/ha | Root_galling_index (Meloidogyne incognita [5]): 3.66 | Root_galling_index (Meloidogyne incognita [6]): 3.34 | Root_galling_index (Meloidogyne incognita [7]): 2.31 | Activity (Meloidogyne incognita [8]): 58.5 /10'2cm3 | Activity (Meloidogyne incognita [9]): 45.5 /10'2cm3 | Activity (Meloidogyne incognita [10]): 36.9 /10'2cm3 | Activity (Meloidogyne incognita [11]): 45.1 /10'2cm3 | Activity (Meloidogyne incognita [12]): 38.4 /10'2cm3 | Activity (Zingiber officinale [13]): 12.8 mm | Activity (Zingiber officinale [14]): 13.9 mm | Activity (Ralstonia solanacearum [15]): Active | Activity (Meloidogyne incognita [16]): 27.3 /10'2cm3 | Activity (Meloidogyne incognita [17]): 33.6 /10'2cm3 | Activity (Meloidogyne incognita [18]): 24.2 /10'2cm3 | Activity (Meloidogyne incognita [19]): 17.3 /10'2cm3 | Activity (Zingiber officinale [20]): Active | Activity (Zingiber officinale [21]): Active | Activity (Zingiber officinale [22]): 12.1 mm | Crop_yield (Zingiber officinale [23]): 36.3 tons/ha | Crop_yield (Zingiber officinale [24]): 38.2 tons/ha | Crop_yield (Zingiber officinale [25]): 24.9 tons/ha | Crop_yield (Zingiber officinale [26]): 26.9 tons/ha | Crop_yield (Zingiber officinale [27]): 29.5 tons/ha | Crop_yield (Zingiber officinale [28]): 7.4 tons/ha | Crop_yield (Zingiber officinale [29]): 8.1 tons/ha | Activity (Capsella bursa-pastoris [30]): inactive | Activity (Digitaria sanguinalis [31]): inactive | Activity (Stellaria media [32]): inactive | Activity (Zingiber officinale [33]): 82.6 cm | Activity (Zingiber officinale [34]): 88.9 cm | Activity (Zingiber officinale [35]): 85.4 cm

CBr [BROMOMETHANE]
Crop_yield (Zingiber officinale [36]): 76.4 tons/ha | Root_galling_index (Meloidogyne incognita [37]): 2.68 | Activity (Meloidogyne incognita [38]): 47.4 /10'2cm3 | Activity (Digitaria sanguinalis [39]): Active | Activity (Stellaria media [40]): Active | Activity (Ralstonia solanacearum [41]): Active | Activity (Meloidogyne incognita [42]): 31.6 /10'2cm3 | Activity (Meloidogyne incognita [43]): 22.3 /10'2cm3 | Crop_yield (Zingiber officinale [44]): 39.1 tons/ha | Crop_yield (Zingiber officinale [45]): 28.7 tons/ha | Crop_yield (Zingiber officinale [46]): 8.6 tons/ha | Activity (Capsella bursa-pastoris [47]): Active | Activity (Zingiber officinale [48]): 91.3 cm | Activity (Zingiber officinale [49]): 13.5 mm
